Experiments:
Format in all cases: functional
NCI-H522 = assay: Growth inhibition of human NCI-H522 cells assessed as cell growth at 10^-8 M after 48 hrs by sulforhodamine B assay; settings: NCI-H522, 48 h; for growth at 0.01 µM: read-out: Activity; for CC50: read-out: pLC50 (the source's name) (converted); for TGI: read-out: pTGI (converted)
M14 [1] = assay: Growth inhibition of human M14 cells after 48 hrs by sulforhodamine B assay; settings: M14, 48 h; for CC50: read-out: LC50 (the source's name)
IGROV-1 = assay: Growth inhibition of human IGROV1 cells assessed as cell growth at 10^-7 M after 48 hrs by sulforhodamine B assay; settings: IGROV-1, 48 h, read-out: Activity
SNB-75 [2] = assay: Growth inhibition of human SNB75 cells assessed as cell growth at 10^-8 M after 48 hrs by sulforhodamine B assay; settings: SNB-75, 48 h; for growth at 0.01 µM: read-out: Activity; for TGI: read-out: pTGI (converted)
COLO 205 = assay: Induction of apoptosis in human COLO205 cells assessed as necrotic apoptosis cells level at 10 uM after 24 hrs by Annexin V/propidium iodide staining-based fluorescence microscopy
Malme-3M [3] = assay: Growth inhibition of human MALME-3M cells assessed as cell growth at 10^-4 M after 48 hrs by sulforhodamine B assay; settings: read-out: Activity
MDA-MB-435 = assay: Growth inhibition of human MDA-MB-435 cells assessed as cell growth at 10^-4 M after 48 hrs by sulforhodamine B assay; settings: MDA-MB-435, 48 h, read-out: Activity
[4] = Growth inhibition of human LOXIMVI cells assessed as cell growth at 10^-7 M after 48 hrs by sulforhodamine B assay; settings: LOX IMVI, read-out: Activity
[5] = Growth inhibition of human OVCAR3 cells assessed as cell growth at 10^-7 M after 48 hrs by sulforhodamine B assay; settings: OVCAR-3, 48 h, read-out: Activity
[6] = Growth inhibition of human OVCAR4 cells after 48 hrs by sulforhodamine B assay; settings: OVCAR-4, 48 h; for CC50: read-out: LC50 (the source's name)
SK-MEL-28 = assay: Growth inhibition of human SK-MEL-28 cells after 48 hrs by sulforhodamine B assay; settings: SK-MEL-28, 48 h; for CC50: read-out: LC50 (the source's name)
SK-OV-3 = assay: Growth inhibition of human SKOV3 cells assessed as cell growth at 10^-4 M after 48 hrs by sulforhodamine B assay; settings: SK-OV-3, 48 h, read-out: Activity
SNB-75 [7] = assay: Growth inhibition of human SNB75 cells assessed as cell growth at 10^-7 M after 48 hrs by sulforhodamine B assay; settings: SNB-75, 48 h, read-out: Activity
SR [8] = assay: Growth inhibition of human SR cells assessed as cell growth at 10^-6 M after 48 hrs by sulforhodamine B assay; settings: read-out: Activity
HCT-116 [9] = assay: Growth inhibition of human HCT116 cells after 48 hrs by sulforhodamine B assay; settings: HCT-116, 48 h; for CC50: read-out: LC50 (the source's name)
SK-MEL-2 = assay: Growth inhibition of human SK-MEL-2 cells assessed as cell growth at 10^-4 M after 48 hrs by sulforhodamine B assay; settings: SK-MEL-2, 48 h, read-out: Activity
NCI-H23 [10] = assay: Growth inhibition of human NCI-H23 cells assessed as cell growth at 10^-4 M after 48 hrs by sulforhodamine B assay; settings: NCI-H23, 48 h, read-out: Activity
NCI-H322M [11] = assay: Growth inhibition of human NCI-H322M cells assessed as cell growth at 10^-6 M after 48 hrs by sulforhodamine B assay; settings: read-out: Activity
U-251 = assay: Growth inhibition of human U251 cells assessed as cell growth at 10^-8 M after 48 hrs by sulforhodamine B assay; settings: U-251, 48 h; for growth at 0.01 µM: read-out: Activity; for TGI: read-out: pTGI (converted)
NCI-H23 [12] = assay: Growth inhibition of human NCI-H23 cells assessed as cell growth at 10^-8 M after 48 hrs by sulforhodamine B assay; settings: NCI-H23, 48 h; for growth at 0.01 µM: read-out: Activity; for TGI: read-out: pTGI (converted)
[13] = Growth inhibition of human HCT15 cells assessed as cell growth at 10^-4 M after 48 hrs by sulforhodamine B assay; settings: HCT-15, 48 h, read-out: Activity
NCI-H322M [14] = assay: Growth inhibition of human NCI-H322M cells after 48 hrs by sulforhodamine B assay; settings: for CC50: read-out: LC50 (the source's name)
[15] = Growth inhibition of human MOLT4 cells assessed as cell growth at 10^-6 M after 48 hrs by sulforhodamine B assay; settings: MOLT-4, 48 h, read-out: Activity
A498 = assay: Growth inhibition of human A498 cells after 48 hrs by sulforhodamine B assay; settings: A498, 48 h; for CC50: read-out: LC50 (the source's name)
[16] = Growth inhibition of human UACC62 cells after 48 hrs by sulforhodamine B assay; settings: UACC-62, 48 h; for CC50: read-out: LC50 (the source's name)
[17] = Growth inhibition of human HCT15 cells assessed as cell growth at 10^-7 M after 48 hrs by sulforhodamine B assay; settings: HCT-15, 48 h, read-out: Activity
Malme-3M [18] = assay: Growth inhibition of human MALME-3M cells assessed as cell growth at 10^-6 M after 48 hrs by sulforhodamine B assay; settings: read-out: Activity
[19] = Growth inhibition of human BT549 cells assessed as cell growth at 10^-7 M after 48 hrs by sulforhodamine B assay; settings: BT-549, 48 h, read-out: Activity
HT-29 = assay: Growth inhibition of human HT-29 cells assessed as cell growth at 10^-7 M after 48 hrs by sulforhodamine B assay; settings: HT-29, 48 h, read-out: Activity
MDA-MB-231 = assay: Growth inhibition of human MDA-MB-231 cells after 48 hrs by sulforhodamine B assay; settings: MDA-MB-231, 48 h
HCT-116 [20] = assay: Growth inhibition of human HCT116 cells assessed as cell growth at 10^-4 M after 48 hrs by sulforhodamine B assay; settings: HCT-116, 48 h, read-out: Activity
SR [21] = assay: Growth inhibition of human SR cells assessed as cell growth at 10^-4 M after 48 hrs by sulforhodamine B assay; settings: read-out: Activity
M14 [22] = assay: Growth inhibition of human M14 cells assessed as cell growth at 10^-7 M after 48 hrs by sulforhodamine B assay; settings: M14, 48 h, read-out: Activity
SNB-19 = assay: Growth inhibition of human SNB19 cells after 48 hrs by sulforhodamine B assay; settings: SNB-19, 48 h; for CC50: read-out: LC50 (the source's name)

O=C1/C(=C/c2ccc(Cl)cc2Cl)CN(S(=O)(=O)c2ccccc2)C/C1=C\c1ccc(Cl)cc1Cl
GI50 (NCI-H522): 0.851 µM
growth at 0.01 µM (NCI-H522): 95%
CC50 (NCI-H522): 9.77 µM
TGI (NCI-H522): 3.02 µM
GI50 (M14 [1]): 3.66 µM
TGI (M14 [1]): > 100 µM
CC50 (M14 [1]): > 100 µM
growth at 0.1 µM (IGROV-1): 130%
GI50 (SNB-75 [2]): 0.437 µM
LC50 (SNB-75 [2]): > 100 µM
growth at 0.01 µM (SNB-75 [2]): 79%
TGI (SNB-75 [2]): 7.24 µM
Activity (COLO 205): 1%
growth at 100 µM (Malme-3M [3]): 22%
growth at 100 µM (MDA-MB-435): -9%
growth at 0.1 µM [4]: 89%
growth at 0.1 µM [5]: 108%
GI50 [6]: 0.279 µM
TGI [6]: > 100 µM
CC50 [6]: > 100 µM
GI50 (SK-MEL-28): 4.44 µM
TGI (SK-MEL-28): > 100 µM
CC50 (SK-MEL-28): > 100 µM
growth at 100 µM (SK-OV-3): 24%
growth at 0.1 µM (SNB-75 [7]): 71%
growth at 1 µM (SR [8]): -5%
GI50 (HCT-116 [9]): 0.198 µM
TGI (HCT-116 [9]): 0.424 µM
CC50 (HCT-116 [9]): 0.908 µM
growth at 100 µM (SK-MEL-2): 6%
growth at 100 µM (NCI-H23 [10]): -28%
growth at 1 µM (NCI-H322M [11]): 35%
GI50 (U-251): 0.174 µM
LC50 (U-251): 0.813 µM
growth at 0.01 µM (U-251): 96%
TGI (U-251): 0.372 µM
GI50 (NCI-H23 [12]): 0.427 µM
LC50 (NCI-H23 [12]): > 100 µM
growth at 0.01 µM (NCI-H23 [12]): 103%
TGI (NCI-H23 [12]): 2.69 µM
growth at 100 µM [13]: -36%
GI50 (NCI-H322M [14]): 0.68 µM
TGI (NCI-H322M [14]): 3.56 µM
CC50 (NCI-H322M [14]): > 100 µM
growth at 1 µM [15]: 34%
GI50 (A498): 0.727 µM
TGI (A498): 4.39 µM
CC50 (A498): > 100 µM
GI50 [16]: 0.804 µM
TGI [16]: 2.31 µM
CC50 [16]: 5.81 µM
growth at 0.1 µM [17]: 90%
growth at 1 µM (Malme-3M [18]): 123%
growth at 0.1 µM [19]: 110%
growth at 0.1 µM (HT-29): 101%
GI50 (MDA-MB-231): 0.466 µM
TGI (MDA-MB-231): 2.16 µM
growth at 100 µM (HCT-116 [20]): -76%
growth at 100 µM (SR [21]): -21%
growth at 0.1 µM (M14 [22]): 104%
GI50 (SNB-19): 0.313 µM
TGI (SNB-19): 2.88 µM
CC50 (SNB-19): > 100 µM

Cc1ccc(S(=O)(=O)N2C/C(=C\c3cc(F)cc(F)c3)C(=O)/C(=C/c3cc(F)cc(F)c3)C2)cc1
GI50 (NCI-H522): 0.316 µM
growth at 0.01 µM (NCI-H522): 100%
CC50 (NCI-H522): 3.89 µM
TGI (NCI-H522): 0.955 µM
GI50 (M14 [1]): 0.359 µM
TGI (M14 [1]): 1.4 µM
CC50 (M14 [1]): 5.91 µM
growth at 0.1 µM (IGROV-1): 106%
GI50 (SNB-75 [2]): 2 µM
LC50 (SNB-75 [2]): 26.3 µM
growth at 0.01 µM (SNB-75 [2]): 88%
TGI (SNB-75 [2]): 5.89 µM
Activity (COLO 205): 3%
growth at 100 µM (Malme-3M [3]): -78%
growth at 100 µM (MDA-MB-435): -83%
growth at 0.1 µM [4]: 92%
growth at 0.1 µM [5]: 112%
GI50 [6]: 0.441 µM
TGI [6]: 5.23 µM
CC50 [6]: 36.3 µM
GI50 (SK-MEL-28): 0.473 µM
TGI (SK-MEL-28): 1.79 µM
CC50 (SK-MEL-28): 4.82 µM
growth at 100 µM (SK-OV-3): -68%
growth at 0.1 µM (SNB-75 [7]): 90%
growth at 1 µM (SR [8]): -20%
GI50 (HCT-116 [9]): 0.209 µM
TGI (HCT-116 [9]): 0.543 µM
CC50 (HCT-116 [9]): 1.94 µM
growth at 100 µM (SK-MEL-2): -77%
growth at 100 µM (NCI-H23 [10]): -72%
growth at 1 µM (NCI-H322M [11]): 101%
GI50 (U-251): 0.186 µM
LC50 (U-251): 2.04 µM
growth at 0.01 µM (U-251): 94%
TGI (U-251): 0.525 µM
GI50 (NCI-H23 [12]): 1.74 µM
LC50 (NCI-H23 [12]): 26.9 µM
growth at 0.01 µM (NCI-H23 [12]): 98%
TGI (NCI-H23 [12]): 5.01 µM
growth at 100 µM [13]: -65%
GI50 (NCI-H322M [14]): 4.7 µM
TGI (NCI-H322M [14]): 22.8 µM
CC50 (NCI-H322M [14]): > 100 µM
growth at 1 µM [15]: 8%
GI50 (A498): 1.88 µM
TGI (A498): 4.05 µM
CC50 (A498): 8.76 µM
GI50 [16]: 0.212 µM
TGI [16]: 0.514 µM
CC50 [16]: 1.62 µM
growth at 0.1 µM [17]: 80%
growth at 1 µM (Malme-3M [18]): -15%
growth at 0.1 µM [19]: 111%
growth at 0.1 µM (HT-29): 91%
GI50 (MDA-MB-231): 0.27 µM
TGI (MDA-MB-231): 0.784 µM
CC50 (MDA-MB-231; read-out: LC50 (the source's name)): 8.48 µM
growth at 100 µM (HCT-116 [20]): -92%
growth at 100 µM (SR [21]): -30%
growth at 0.1 µM (M14 [22]): 98%
GI50 (SNB-19): 0.22 µM
TGI (SNB-19): 0.752 µM
CC50 (SNB-19): 2.82 µM

From ChEMBL document CHEMBL3217615, “Novel 3,5-bis(arylidiene)-4-piperidone based monocarbonyl analogs of curcumin: anticancer activity evaluation and mode of action study” (2014)
